Measured values published in paper PMC3281519 (Journal of Medicinal Chemistry, 2011).

Experiments:
recombinant human sEH = molecular target: T1, recombinant human sEH (Homo sapiens, UniProt P34913); experiment: sEH IC50 kinetic fluorescent assay; format: biochemical
T1 sequence (P34913 1-555): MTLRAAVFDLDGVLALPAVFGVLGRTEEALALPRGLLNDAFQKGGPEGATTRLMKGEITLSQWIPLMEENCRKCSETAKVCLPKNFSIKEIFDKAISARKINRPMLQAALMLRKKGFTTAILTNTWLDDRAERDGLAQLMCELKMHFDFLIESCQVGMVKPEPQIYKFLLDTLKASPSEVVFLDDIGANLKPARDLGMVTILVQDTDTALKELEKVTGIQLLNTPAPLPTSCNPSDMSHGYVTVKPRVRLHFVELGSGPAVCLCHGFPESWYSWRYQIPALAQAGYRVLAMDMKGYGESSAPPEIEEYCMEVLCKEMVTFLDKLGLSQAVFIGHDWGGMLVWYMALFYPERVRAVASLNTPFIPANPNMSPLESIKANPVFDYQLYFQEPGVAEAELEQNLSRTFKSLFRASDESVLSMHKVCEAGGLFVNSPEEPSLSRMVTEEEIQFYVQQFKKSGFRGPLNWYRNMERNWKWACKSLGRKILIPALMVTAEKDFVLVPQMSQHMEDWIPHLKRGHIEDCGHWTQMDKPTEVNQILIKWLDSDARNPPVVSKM

[1] = Pharmacokinetic screening by oral cassette dosing in mice; format: in vivo; conditions: mouse; compared to 21i and 21j
human recombinant COX-2 = molecular target: T2, human recombinant COX-2 (Homo sapiens, UniProt P35354); experiment: COX Fluorescent Inhibitor Screening Assay, COX-2; conditions: compared to compound 21b
T2 sequence (P35354 18-604): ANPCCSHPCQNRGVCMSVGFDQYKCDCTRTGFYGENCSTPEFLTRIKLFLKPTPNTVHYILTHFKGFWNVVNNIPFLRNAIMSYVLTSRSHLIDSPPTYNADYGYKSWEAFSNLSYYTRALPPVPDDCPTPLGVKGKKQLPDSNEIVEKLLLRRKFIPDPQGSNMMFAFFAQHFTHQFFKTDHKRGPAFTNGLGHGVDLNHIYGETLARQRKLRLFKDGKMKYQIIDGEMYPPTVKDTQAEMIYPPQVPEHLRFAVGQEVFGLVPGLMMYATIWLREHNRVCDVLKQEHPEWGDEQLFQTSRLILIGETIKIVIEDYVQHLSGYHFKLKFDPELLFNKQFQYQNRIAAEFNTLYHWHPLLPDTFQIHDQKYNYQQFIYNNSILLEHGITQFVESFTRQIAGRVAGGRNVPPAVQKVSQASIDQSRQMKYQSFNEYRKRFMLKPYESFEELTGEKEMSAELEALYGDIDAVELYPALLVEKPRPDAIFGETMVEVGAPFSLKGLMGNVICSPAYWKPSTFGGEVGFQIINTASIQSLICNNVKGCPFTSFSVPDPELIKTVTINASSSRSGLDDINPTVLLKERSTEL

[2] = Pharmacokinetics after oral administration in rats; format: in vivo; conditions: rat; compared with 21j
Sprague-Dawley rats = format: in vivo; conditions: rats treated at 10 mg/kg s.c., observed over nine hours
U937 cell line = experiment: Acute toxicity on U937 cell line; format: cell-based; conditions: U937 cells

**Q.** With `CS(=O)(=O)c1ccc(-n2nc(CNC(=O)NC3CCCCCC3)cc2-c2ccccc2)cc1` [Compound 11b, 1-Cycloheptyl-3-[1-(4-methanesulfonyl-phenyl)-5-phenyl-1H-pyrazol-3-ylmethyl]-urea] as the molecule, how does the “improvement of sEH inhibition” value (recombinant human sEH; compared with compound 11a) read?
**A.** 10 fold

**Q.** Which “improvement of sEH inhibition” value (recombinant human sEH; compared to compound 11g) does the source give for `NS(=O)(=O)c1ccc(-n2nc(CCNC(=O)Nc3cccc(C(F)(F)F)c3)cc2-c2ccccc2)cc1` [Compound 15, 4-(5-Phenyl-3-{2-[3-(3-trifluoromethyl-phenyl)-ureido]-ethyl}-pyrazol-1-yl)-benzenesulfonamide] here?
**A.** 3 fold

**Q.** With `NS(=O)(=O)c1ccc(-n2nc(CCCNC(=O)Nc3cccc(C(F)(F)F)c3)cc2-c2ccccc2)cc1` [Compound 21b, 4-(5-Phenyl-3-{3-[3-(3-trifluoromethyl-phenyl)-ureido]-propyl}-pyrazol-1-yl)-benzenesulfonamide] as the molecule, how does the “improvement of sEH inhibition” value (recombinant human sEH; compared to compound 11g) read?
**A.** 20 fold

**Q.** And the “decrease in AUC” value [1]?
**A.** 8 fold

**Q.** What about the “lower Cmax” value [1] of the same molecule?
**A.** 15 fold

**Q.** With `Cc1ccc(-c2cc(CCCNC(=O)Nc3cccc(C(F)(F)F)c3)nn2-c2ccc(S(N)(=O)=O)cc2)cc1` [Compound 21c] as the molecule, how does the “diminished sEH activity” value (recombinant human sEH; compared to compound 21b) read?
**A.** 3 fold

**Q.** What about the “diminished COX-2 activity” value (human recombinant COX-2) of the same molecule?
**A.** 3 fold

**Q.** For `NS(=O)(=O)c1ccc(-n2nc(CCCNC(=O)Nc3ccc(C(F)(F)F)cc3)cc2-c2ccccc2)cc1` [Compound 21i, 4-(5-Phenyl-3-{3-[3-(4-trifluoromethyl-phenyl)-ureido]-propyl}-pyrazol-1-yl)-benzenesulfonamide], which “higher Cmax” value [2] is on record?
**A.** 2 fold

**Q.** What about the “overt signs of behavioral changes or acute toxicity” value (Sprague-Dawley rats) of the same molecule?
**A.** no overt signs of any behavioral changes or acute observable symptoms of toxicity

**Q.** And the “acute toxicity on U937 cell line” value (U937 cell line)?
**A.** did not observe any acute toxicity
